Data as given in patent US20250339409A1, “USES OF PAN BET INHIBITORS” (VYNE THERAPEUTICS INC., priority 2021, published 2025).
Like-named read-outs stand apart in the source and are kept apart here.

Key:
[1] = Toxicokinetics in dogs after intra-articular injection: plasma concentrations; type: in vivo, Beagle dogs; settings: dog; for AUC(0-t) / Cmax / Tmax / concentration at 1 h / concentration at 2 h / concentration at 4 h / concentration at 8 h / concentration at 24 h / concentration at 336 h / concentration at 504 h / concentration at 672 h / concentration at 4 weeks: Beagle, plasma; for AUC(0-t): read-out: Plasma AUC0-672 h; for concentration at 1 h / concentration at 2 h / concentration at 4 h / concentration at 8 h / concentration at 24 h / concentration at 336 h / concentration at 504 h / concentration at 672 h / concentration at 4 weeks: other: intra-articular injection; for concentration at 1 h / concentration at 2 h / concentration at 4 h / concentration at 8 h / concentration at 24 h / concentration at 336 h / concentration at 504 h / concentration at 672 h: read-out: Plasma concentration of BETi1; for concentration at 4 weeks: read-out: plasma level at four weeks post-treatment
[2] = system: reconstituted human epidermis stimulated with TNF-α and IFN-γ; experiment: Reconstituted human epidermis (RHE) vitiligo model: morphological analysis after H/E staining; type: cell-based; settings: topical on RHE, 48 h
Experimental: To generate the morphological and functional aspects of vitiligo, in vitro reconstituted epidermis with Normal Human Epidermal Keratinocytes (NHEK) and Normal Human Epidermal Melanocytes, darkly pigmented (NHEM-DP) are exposed to a cytokine cocktail (TNF-α and IFN-γ). The cytokine cocktail is applied during 48 hours in the culture medium of epidermis. NHEK are isolated from the fore skin of 3 Caucasian donors, and NHEM-DP are isolated from 1 donor. The tissues are cultured at the air-liquid interface in Epilife medium (Fisher Scientific, M-EPI-500-A) containing supplements and antibiotics (Gentamycin, Fisher Scientific, 15710-049). […] Three epidermis samples per condition are fixed in 4% formaldehyde solution and embedded in paraffin for further analysis (morphology analysis, melanin and melanocytes localisation/quantification). […] The tissue morphology is analyzed through a Hematoxylin/Eosin (H/E) staining. […] Formulations containing four doses of BETi1, the BETi1 vehicle (placebo) and JAK inhibitor, were evaluated in RHE TNF-α/IFN-γ vitiligo model as described in Experimental section Methods C and D and representative images of H/E stained epidermis sections are shown in FIG. 4A-H. Treatments of the RHEs with each of the formulations were initiated at day 9 of their reconstitution process. […]

[3] = both sexes, 7.5 mg/animal, 7.5 mg intra-articular
[4] = both sexes, 75 mg/animal, 75 mg intra-articular
[5] = both sexes, 150 mg/animal, 150 mg intra-articular

Cn1cc(-c2cccc(O)c2Oc2ccccc2)c2cc[nH]c2c1=O [BETi1]
AUC(0-t) ([1]; 7.5 mg/animal, Female, Study Day 1): 472 ng·h/mL
Cmax ([1]; 7.5 mg/animal, Female, Study Day 1, read-out: Plasma Cmax): 37.6 ng/mL
Tmax ([1]; 7.5 mg/animal, Female, Study Day 1, read-out: Plasma Tmax): 1.5 h
AUC(0-t) ([1]; 7.5 mg/animal, Male, Study Day 1): 390 ng·h/mL
Cmax ([1]; 7.5 mg/animal, Male, Study Day 1, read-out: Plasma Cmax): 32.1 ng/mL
Tmax ([1]; 7.5 mg/animal, Male, Study Day 1, read-out: Plasma Tmax): 4 h
AUC(0-t) ([1]; 75 mg/animal, Female, Study Day 1): 3760 ng·h/mL
Cmax ([1]; 75 mg/animal, Female, Study Day 1, read-out: Plasma Cmax): 56.6 ng/mL
Tmax ([1]; 75 mg/animal, Female, Study Day 1, read-out: Plasma Tmax): 2 h
AUC(0-t) ([1]; 75 mg/animal, Male, Study Day 1): 3070 ng·h/mL
Cmax ([1]; 75 mg/animal, Male, Study Day 1, read-out: Plasma Cmax): 50.2 ng/mL
Tmax ([1]; 75 mg/animal, Male, Study Day 1, read-out: Plasma Tmax): 2 h
AUC(0-t) ([1]; 150 mg/animal, Female, Study Day 1): 5990 ng·h/mL
Cmax ([1]; 150 mg/animal, Female, Study Day 1, read-out: Plasma Cmax): 52.9 ng/mL
Tmax ([1]; 150 mg/animal, Female, Study Day 1, read-out: Plasma Tmax): 5 h
AUC(0-t) ([1]; 150 mg/animal, Male, Study Day 1): 3810 ng·h/mL
Cmax ([1]; 150 mg/animal, Male, Study Day 1, read-out: Plasma Cmax): 48.8 ng/mL
Tmax ([1]; 150 mg/animal, Male, Study Day 1, read-out: Plasma Tmax): 2 h
concentration at 1 h [1, 3]: 29.6 ng/mL
concentration at 2 h [1, 3]: 32.6 ng/mL
concentration at 4 h [1, 3]: 26.1 ng/mL
concentration at 8 h [1, 3]: 15.9 ng/mL
concentration at 24 h [1, 3]: 2.02 ng/mL
concentration at 336 h [1, 3]: 0 ng/mL
concentration at 504 h [1, 3]: 0 ng/mL
concentration at 672 h [1, 3]: 0 ng/mL
concentration at 1 h [1, 4]: 49.1 ng/mL
concentration at 2 h [1, 4]: 53.4 ng/mL
concentration at 4 h [1, 4]: 39.4 ng/mL
concentration at 8 h [1, 4]: 38.1 ng/mL
concentration at 24 h [1, 4]: 13.5 ng/mL
concentration at 336 h [1, 4]: 1.95 ng/mL
concentration at 504 h [1, 4]: 0.835 ng/mL
concentration at 672 h [1, 4]: 0.505 ng/mL
concentration at 1 h [1, 5]: 42.2 ng/mL
concentration at 2 h [1, 5]: 48.8 ng/mL
concentration at 4 h [1, 5]: 35.8 ng/mL
concentration at 8 h [1, 5]: 48.2 ng/mL
concentration at 24 h [1, 5]: 20.9 ng/mL
concentration at 336 h [1, 5]: 4.72 ng/mL
concentration at 504 h [1, 5]: 2.19 ng/mL
concentration at 672 h [1, 5]: 1.72 ng/mL
concentration at 4 weeks ([1]; both sexes, 75 mg/animal, intra-articular, 75 mg): 2 nM
concentration at 4 weeks ([1]; both sexes, 150 mg/animal, intra-articular, 150 mg): 5 nM
Tmax ([1]; both sexes, intra-articular, calculated, read-out: Tmax, plasma (converted)): ~120 h
Cmax ([1]; both sexes, intra-articular, read-out: Cmax, plasma): 50 ng/mL
clearance indicated by plasma levels ([1]; intra-articular): rapid clearance with a reduction being seen after 4 hours
plasma AUC lower compared to synovial levels ([1]; intra-articular): ~2000 ×
plasma Cmax lower compared to synovial levels ([1]; intra-articular): ~1000 ×
morphological alteration of RHE (H/E staining) [2]: did not induce any morphological alteration
